Results taken from PubChem BioAssay (NCI).
Several values for one entry are separate records, joined by “and”; a condition that tells them apart may be missing. Equal entries are not always repeated.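 Each compound was tested at five concentrations against cells in 96-well plates for 48 hours. GI50 = concentration required for 50% inhibition of growth. TGI is the concentration that stops growth completely.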

Assays:
Test in all cases: NCI anticancer screen, dose series, 48 h
U251 CNS = system: U251 CNS
HOP-62 NSCLC = system: HOP-62 NSCLC
HCT-116 colon = system: HCT-116 colon
SK-MEL-5 melanoma = system: SK-MEL-5 melanoma
SK-MEL-28 melanoma = system: SK-MEL-28 melanoma
UACC-62 melanoma = system: UACC-62 melanoma
OVCAR-3 ovarian = system: OVCAR-3 ovarian
NCI-H23 lung = system: NCI-H23 lung
A498 renal = system: A498 renal
KM12 colon = system: KM12 colon

Compound | GI50 (U251 CNS) | TGI (U251 CNS) | GI50 (HOP-62 NSCLC) | TGI (HOP-62 NSCLC) | GI50 (HCT-116 colon) | TGI (HCT-116 colon) | GI50 (SK-MEL-5 melanoma) | TGI (SK-MEL-5 melanoma) | GI50 (SK-MEL-28 melanoma) | TGI (SK-MEL-28 melanoma) | GI50 (UACC-62 melanoma) | TGI (UACC-62 melanoma) | GI50 (OVCAR-3 ovarian) | TGI (OVCAR-3 ovarian) | GI50 (NCI-H23 lung) | TGI (NCI-H23 lung) | GI50 (A498 renal) | TGI (A498 renal) | GI50 (KM12 colon) | TGI (KM12 colon)
COc1cccc2c1C(=O)c1c(O)c3c(c(O)c1C2=O)C[C@@](O)(C(=O)CO)C[C@@H]3OC1CC(OC(C)=O)C(OC(C)=O)C(C)O1 (some centres not stated) | 0.275 µM | 7.93 µM | 0.314 µM | 2.27 µM | 0.279 µM | 1.89 µM | 0.249 µM | 1.67 µM | 1.39 µM | 3.2 µM | 0.23 µM | 1.89 µM | 0.965 µM | 4.57 µM | 0.227 µM | 1.5 µM | 0.127 µM | 1.62 µM | 0.549 µM | 3.74 µM
Cc1cc(C(=O)N[C@@H](CCC(=O)O)C(=O)O)sc1CC[C@@H]1CNc2nc(N)[nH]c(=O)c2C1 | 0.0274 µM | > 100 µM | 0.0496 µM | > 100 µM | < 0.0127 µM | > 100 µM | 0.0679 µM | > 100 µM | 0.0377 µM | > 100 µM | 0.0378 µM | > 100 µM | 0.048 µM | > 100 µM | 0.0952 µM | > 100 µM | 0.0598 µM | > 100 µM | 0.046 µM | > 100 µM
O=C(N[C@@H]1C=CCC[C@@H]1c1ccccc1)OCc1ccccc1 | – | 32.9 µM | – | 34.6 µM | – | 34.6 µM | – | 33.3 µM | – | 46.5 µM | – | 28 µM | – | 31.2 µM | – | 51.3 µM | – | 39 µM | – | 33.9 µM
CN1C(=O)N(C)C2C1NN=c1s/c(=C\c3c[nH]c4ccccc34)c(=O)n12 (configuration not stated) | 0.0413 µM | > 100 µM | 0.046 µM | 52.6 µM | 0.0371 µM | > 100 µM | 0.0347 µM | 0.184 µM | 34.5 µM | > 100 µM | 0.0464 µM | > 100 µM | 0.0325 µM | > 100 µM | 0.0479 µM | > 100 µM | 0.0688 µM | 0.602 µM | 0.04 µM | > 100 µM
CC(N)(Cc1c[nH]c2ccccc12)C(=O)O (configuration not stated) | > 2500 µM | > 2500 µM | > 2500 µM | > 2500 µM | > 2500 µM | > 2500 µM | 2350 µM | > 2500 µM | > 2500 µM | > 2500 µM | > 2500 µM | > 2500 µM | > 2500 µM | > 2500 µM | > 2500 µM | > 2500 µM | > 2500 µM | > 2500 µM | > 2500 µM | > 2500 µM
Cc1cc(Nc2cc(CN3CCOCC3)c3nc(C)c(Cc4ccc(Cl)cc4F)n3n2)n[nH]1 | 1.52 µM | 5.24 µM | 1.84 µM | 9.49 µM | 0.689 µM | 2.65 µM | 2.27 µM | 8.72 µM | 3.5 µM | 17.2 µM | 2.36 µM | 11.3 µM | 3.24 µM | 15.3 µM | 1.72 µM | 8.35 µM | 0.288 µM | 1.1 µM | 0.0481 µM | 5.6 µM
COc1ccc(S(=O)(=O)NC2=NCCN2C(=S)SN2CCn3c2nsc3=S)cc1OC | 22.3 µM | 53.4 µM | 27.5 µM | 78.3 µM | 19.2 µM | 40 µM | 25.3 µM | 74.1 µM | 16.5 µM | 37.5 µM | 16.3 µM | 38 µM | 21 µM | 47 µM | 22.4 µM | 53 µM | 37.3 µM | > 100 µM | 21.2 µM | 52 µM
O=c1c2cc(Br)ccc2nc(-c2ccccc2)n1NCC1(O)OCC(O)C(O)C1O (configuration not stated) | – | > 100 µM | – | > 100 µM | – | > 100 µM | – | > 100 µM | – | > 100 µM | – | > 100 µM | – | > 100 µM | – | > 100 µM | – | > 100 µM | – | > 100 µM
COc1ccc2[nH]c3c(C)c4cc[n+](C)cc4c(C)c3c2c1 | 0.0689 µM and 0.0524 µM | – | 0.311 µM and 0.24 µM | 2.24 µM [middle of 4 runs] | 0.578 µM and 1.14 µM | – | 2.07 µM | 7.15 µM [middle of 4 runs] | 3.07 µM | 10.8 µM [middle of 4 runs] | 1.28 µM and 7.39 µM | – | 0.246 µM | – | 0.325 µM | 3.3 µM [middle of 4 runs] | – | 51.9 µM [middle of 4 runs] | 0.34 µM and 0.817 µM | –
COc1cc(-c2cc(-c3nc4cc(Cl)c(Cl)cc4[nH]3)[nH]n2)cc(OC)c1OC | 2.96 µM | 11 µM | 3.43 µM | 11 µM | 2.78 µM | 10.3 µM | 1.56 µM | 3.24 µM | 3.07 µM | 12.3 µM | 1.94 µM | 4.31 µM | 4.05 µM | 15.4 µM | 3.4 µM | 13 µM | 4.21 µM | 28.3 µM | 3.56 µM | 13.9 µM
CC(C)(C)OC(=O)N1CC(Cn2cc(C(F)(F)F)c3c(Cl)ncnc32)C1 | 1.79 µM | 3.26 µM | 1.95 µM | 3.93 µM | 1.86 µM | 3.35 µM | 1.79 µM | 3.21 µM | 1.91 µM | 3.53 µM | 1.85 µM | 3.65 µM | 1.92 µM | 3.6 µM | 1.84 µM | 3.58 µM | 4.81 µM | 16.8 µM | 2.34 µM | 5.35 µM
S=c1nc[nH]c2nc[nH]c12 | 19.3 µM and 72.4 µM | > 100 µM and 719 µM and > 750 µM | 2.09 µM and 8 µM | > 100 µM and 526 µM and > 750 µM | 5.4 µM | > 100 µM and 710 µM and > 750 µM | 5.4 µM and 46.1 µM | 62.2 µM and 285 µM and > 430 µM | 79.2 µM | > 750 µM | – | > 100 µM and 512 µM and > 750 µM | 0.762 µM and 3.66 µM | > 100 µM and 537 µM and > 750 µM | 3.11 µM and 7.97 µM | > 100 µM and 271 µM and > 750 µM | 104 µM | 584 µM and 187 µM | – | > 100 µM and 716 µM and > 707 µM
O=C1c2ccc3c4c(ccc(c24)C(=O)N1CCCNCc1ccccc1)C(=O)N(CCCNCc1ccccc1)C3=O | 0.112 µM | 0.301 µM | 0.232 µM | 0.772 µM | 0.0801 µM | 0.39 µM | 0.165 µM | 0.302 µM | 0.247 µM | 0.636 µM | 0.18 µM | 0.333 µM | 0.13 µM | 0.476 µM | 0.18 µM | 0.42 µM | 0.951 µM | 2.18 µM | 0.108 µM | 0.288 µM
